Test results as given in US6338843B1, “Biologically active materials” (priority 1997, dated 2002).

What was measured:
rat red blood cells = assay: Stability of rat red blood cells incubated in vitro (haemoglobin release, % lysis); format: cell-based; details: rat RBC 2% w/v suspension in PBS; relative to Triton X-100 = 100% lysis
Method: Dextrins of different molecular weight were incubated with isolated rat red blood cells (RBC) and haemoglobin release detected spectrophotometrically. Various dilutions of the test polymers (dextrins) and of the reference polymer polyethyleneimine were made up in PBS and mixed with an equal volume of fresh 2% w/v suspension of rat RBCs. This preparation was centrifuged at 1500×g for 10 min at room temperature. Then, 100 μl of the supernatant was removed and the levels of haemoglobin quantitated spectrophotometrically at […]. The results illustrated in FIG. 1 were expressed as % lysis relative to that of a Triton X-100 control (Sigma) which gave 100% RBC lysis.

L1210 cells = details: 72 h incubation, MTT
Method: L1210 cells were seeded at a density of 1×10^4 cells per well into 96 well ‘v’ bottomed microtiter plates (Costar) in RPMI 1640 tissue culture media (Gibeo) supplemented with 10% Foetal Calf Scrum (FCS) (Gibeo). All incubations were carried out at 37° C. in an atmosphere of 5% CO2.
The cells were then left for 24 h. Prior to being incubated with the polymers the cells were centrifuged at 1000×g for 10 minutes at room temperature. This served to pellet the cells and allow the removal of the media.
Doxorubicin and dextrin doxorubicin were then dissolved in RPMI 1640 containing 10% FCS and filter sterilised through 0.2μ filters (Aerodisk). Following this, the pellet was resuspended in media containing the appropriate concentration of drug or drug conjugate.
The tetrazolium dye MTT was used to assess cell viability. The cells were incubated for 67 h prior to the addition of the MTT. After a further incubation period of 5 h, the cells in suspension were subjected to centrifugation, the media removed and 100 μl of optical grade DMSO (Sigma) was added. The plates were read at 550 mn using a Titerteck plate reader. Results (OD) were expressed as a % of the OD seen in cell cultures containing no polymer.

Row | Compound | red cell lysis (haemoglobin release) (rat red blood cells) | toxicity to L1210 cells in vitro (L1210 cells)
1 | Triton X-100 | caused haemoglobin release | 
2 | COc1cccc2c1C(=O)c1c(O)c3c(c(O)c1C2=O)C[C@@](O)(C(=O)CO)C[C@@H]3O[C@H]1C[C@H](N)[C@H](O)[C@H](C)O1 [doxorubicin] |  | toxic
